Assay results: ChEMBL document CHEMBL4613242, “Thiopeptide Defense by an Ant's Bacterial Symbiont” (2020)

Assays:
Type in all cases: functional
Pseudonocardia [1] = test: Antimicrobial activity against Pseudonocardia 18AZ-4 at 0.1 ug measured on day 5 by agar diffusion assay; details: 18AZ-4, 120 h, read-out: DIZ
Bacillus subtilis = test: Antimicrobial activity against Bacillus subtilis 3610 at 0.1 ug measured at 24 hrs by agar diffusion assay; details: Bacillus subtilis, 3610, 24 h; read-out: DIZ
Pseudonocardia [2] = test: Antimicrobial activity against Pseudonocardia 18PO-3 at 0.1 ug measured on day 5 by agar diffusion assay; details: 18PO-3, 120 h, read-out: DIZ
Pseudonocardia [3] = test: Antimicrobial activity against Pseudonocardia 17SM-1 at 0.1 ug measured on day 5 by agar diffusion assay; details: 17SM-1, 120 h, read-out: DIZ
Escovopsis sp. = test: Antimicrobial activity against Escovopsis sp. at 0.1 ug measured on day 5 by agar diffusion assay; details: 120 h, read-out: DIZ
Pseudonocardia [4] = test: Antimicrobial activity against Pseudonocardia PLR1 at 0.1 ug measured on day 5 by agar diffusion assay; details: PLR1, 120 h, read-out: DIZ
Pseudonocardia [5] = test: Antimicrobial activity against Pseudonocardia 17SE-10 at 0.1 ug measured on day 5 by agar diffusion assay; details: 17SE-10, 120 h, read-out: DIZ
Candida albicans = test: Antimicrobial activity against Candida albicans SC5314 at 0.1 ug measured at 24 hrs by agar diffusion assay; details: SC5314, 24 h, read-out: DIZ
Pseudonocardia [6] = test: Antimicrobial activity against Pseudonocardia 17SE-8 at 0.1 ug measured on day 5 by agar diffusion assay; details: 17SE-8, 120 h, read-out: DIZ
Trichoderma harzianum = test: Antimicrobial activity against Trichoderma harzianum T22 at 0.1 ug measured on day 5 by agar diffusion assay; details: T22, 120 h, read-out: DIZ
Pseudonocardia [7] = test: Antimicrobial activity against Pseudonocardia 17SE-9 at 0.1 ug measured on day 5 by agar diffusion assay; details: 17SE-9, 120 h, read-out: DIZ

`C=C(NC(=O)C(=C)NC(=O)c1csc(-c2ccc3c(n2)-c2csc(n2)-c2csc(n2)[C@@H]2C(C)C[C@H](O)N2C(=O)[C@H](Cc2ccc(O)cc2)NC(=O)C2CSC(=N2)[C@H](Cc2ccccc2)NC(=O)c2csc(n2)[C@H](CC(N)=O)NC(=O)c2nc-3oc2C)n1)C(=O)O` (stereo partly specified) showed a zone of inhibition at 0.1 µg/disc (Pseudonocardia [1]) of 23 mm, a zone of inhibition at 0.1 µg/disc (Bacillus subtilis) of 9.7 mm and a zone of inhibition at 0.1 µg/disc (Pseudonocardia [2]) of 20 mm. For the same compound, the zone of inhibition at 0.1 µg/disc (Pseudonocardia [3]) was 28.3 mm, the zone of inhibition at 0.1 µg/disc (Escovopsis sp.) was 0 mm and the zone of inhibition at 0.1 µg/disc (Pseudonocardia [4]) was 18 mm. It also gave a zone of inhibition at 0.1 µg/disc (Pseudonocardia [5]) of 13.7 mm, a zone of inhibition at 0.1 µg/disc (Candida albicans) of 0 mm and a zone of inhibition at 0.1 µg/disc (Pseudonocardia [6]) of 18.7 mm. For the same compound, the zone of inhibition at 0.1 µg/disc (Trichoderma harzianum) was 0 mm and the zone of inhibition at 0.1 µg/disc (Pseudonocardia [7]) was 0 mm.
